The target in the experiment is T1, CDK9/cyclin K (Homo sapiens, UniProt P50750).
T1 construct: purchased Invitrogen (ThermoFisher) PV4335
In words: TR-FRET Lanthascreen Eu Kinase Binding assay. To be noted: for Curve Class: classifies curves by quality of fit, efficacy and number of asymptotes; for Efficacy: difference between highest and lowest activity across concentration range; for Efficacy / Max Resp: in %. The source says: The TR-FRET Lanthascreen Eu Kinase Binding assay for CDK9/cyclin K was purchased from ThermoFisher and performed as per manufacturer instructions.

26 compounds from article PMC6013488, “A widely-applicable high-throughput cellular thermal shift assay (CETSA) using split Nano Luciferase” (Scientific Reports, 2018) can be followed below.

Counter-ions that a name gives are not always drawn. Like-named read-outs stand apart in the source and are kept apart here.

T1 sequence (P50750 whole entry): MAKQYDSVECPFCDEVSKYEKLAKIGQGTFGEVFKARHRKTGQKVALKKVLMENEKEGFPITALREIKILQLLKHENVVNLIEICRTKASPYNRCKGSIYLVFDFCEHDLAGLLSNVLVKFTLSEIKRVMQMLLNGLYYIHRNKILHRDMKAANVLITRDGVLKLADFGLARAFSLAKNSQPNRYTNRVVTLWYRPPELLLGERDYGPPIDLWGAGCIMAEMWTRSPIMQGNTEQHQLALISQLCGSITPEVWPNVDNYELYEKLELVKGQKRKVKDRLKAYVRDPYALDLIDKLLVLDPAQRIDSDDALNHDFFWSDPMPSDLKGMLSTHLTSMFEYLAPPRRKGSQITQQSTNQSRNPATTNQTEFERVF
T1 sequence (O75909 whole entry partner): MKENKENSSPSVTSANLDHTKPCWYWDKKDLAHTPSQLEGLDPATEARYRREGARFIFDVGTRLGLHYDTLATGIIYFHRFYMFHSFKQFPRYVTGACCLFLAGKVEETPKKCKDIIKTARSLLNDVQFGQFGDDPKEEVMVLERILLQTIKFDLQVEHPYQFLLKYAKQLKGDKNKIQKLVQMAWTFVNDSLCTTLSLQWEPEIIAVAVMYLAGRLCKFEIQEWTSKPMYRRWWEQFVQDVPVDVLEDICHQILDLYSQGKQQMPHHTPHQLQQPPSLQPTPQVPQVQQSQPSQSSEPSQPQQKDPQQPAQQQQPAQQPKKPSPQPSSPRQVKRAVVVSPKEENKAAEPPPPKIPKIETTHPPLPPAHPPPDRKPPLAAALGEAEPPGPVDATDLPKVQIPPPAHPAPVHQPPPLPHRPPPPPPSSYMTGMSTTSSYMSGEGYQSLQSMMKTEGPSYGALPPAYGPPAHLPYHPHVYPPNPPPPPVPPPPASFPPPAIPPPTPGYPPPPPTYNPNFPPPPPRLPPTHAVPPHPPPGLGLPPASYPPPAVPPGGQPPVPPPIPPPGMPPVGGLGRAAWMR

For the compound `Cc1ccc([N+](=O)[O-])cc1[S+](=O)([O-])N(C)/N=C\c1cnc2ccc(Br)cn12` [NCGC00387028-01, PIK-75], the “Curve Class” value turned out to be 5, the Efficacy is given as 0.0 and the “Max Resp” value is listed as -93.4.
On the same counts, the results for `Oc1cc(CNC(=S)/C=C/c2cc(O)c(O)c(Br)c2)cc(O)c1O` [NT 157] are -1.4, -60.3 and -8.3.
As to `C[S+](=O)([O-])N1CCC(NC(=O)c2[nH]ncc2NC(=O)c2c(Cl)cccc2Cl)CC1` [NVP-LCQ195], the “Curve Class” value was -1.2, the Efficacy is reported as -72.2 and the “Max Resp” value is listed as -98.8.
The corresponding values for `CC(=O)c1cnc2ccc(-c3cc(Cl)c(O)c(Cl)c3)nc2c1N[C@H]1CC[C@H](CN(C)C)CC1` [OTSSP167] are -1.1, -82.5 and -98.5.
In the case of `CN(c1ncccc1CNc1nc(Nc2ccc3c(c2)CC(=O)N3)ncc1C(F)(F)F)[S+](C)(=O)[O-]` [PF-562271], the “Curve Class” value is on record as -1.1, the Efficacy was -92.3 and the “Max Resp” value is listed as -101.3.
For the compound `CC(C)CC(=O)Nc1[nH]nc2c1CN(C(=O)C1CCN(C)CC1)C2(C)C` [PHA-793887], the “Curve Class” value is listed as -1.1, the Efficacy is on record as -87.0 and the “Max Resp” value is given as -99.5.
`COc1ccccc1-c1c[nH]c2ncc(-c3cncc(C(=O)N(C)C)c3)cc12` [PPY A]: the “Curve Class” value was -1.1, the Efficacy is recorded as -90.1 and the “Max Resp” value was -95.0.
With `C1=C/COCc2cc(ccc2OCCN2CCCC2)Nc2nccc(n2)-c2cccc(c2)COC/1` [Pacritinib], the “Curve Class” value is recorded as -1.2, the Efficacy is reported as -64.6 and the “Max Resp” value is listed as -95.3.
On the same counts, the results for `CC(=O)c1c(C)c2cnc(Nc3ccc(N4CCNCC4)cn3)nc2n(C2CCCC2)c1=O` [Palbociclib (PD-0332991) HCl] are -1.1, -92.3 and -91.0.
On to `N[C@H]1CC[C@H](Nc2nc(Nc3ccc(C(=O)N4CCCCC4)cc3)c3ncn(-c4cccc(F)c4)c3n2)CC1` [Purfalcamine], for which the “Curve Class” value is on record as -1.2, the Efficacy is -78.7 and the “Max Resp” value is recorded as -96.3. The AC50 (usually the midpoint of the concentration-response curve, whichever way the signal moves) (logarithm of AC50, read-out: Log AC50 (converted)) was 631 nM.
`CC(C)[C@H](CO)Nc1nc(Nc2cccc(Cl)c2)c2ncn(C(C)C)c2n1` [Purvalanol A]: the “Curve Class” value is listed as -1.1, the Efficacy is -79.6 and the “Max Resp” value is reported as -72.7.
Consider `O=C(NCc1cccc(O)c1)Nc1nc(-c2ccncc2)cs1` [RKI-1447], for which the “Curve Class” value was -1.2, the Efficacy was -64.8 and the “Max Resp” value was -59.5.
The corresponding values for `Cc1cc(Nc2cc(NC(=O)c3c(Cl)cccc3Cl)ccn2)nc(N)n1` [RO495] are -1.1, -93.8 and -99.1.
The corresponding values for `Cn1cc(C2=C(c3cn(CCCSC(=N)N)c4ccccc34)C(=O)NC2=O)c2ccccc21` [Ro 31-8220 (mesylate)] are -1.3, -42.0 and -60.6.
Turning to `CC[C@H](CO)Nc1nc(NCc2ccccc2)c2ncn(C(C)C)c2n1` [Roscovitine], the “Curve Class” value is reported as -1.1, the Efficacy is given as -100.3 and the “Max Resp” value is reported as -97.7.
On the same counts, the results for `COc1ccc2c(c1)/C(=C/c1cnc[nH]1)C(=O)N2` [SU9516] are -1.1, -93.0 and -90.2.
As to `CCS(=O)(=O)c1cccc(-c2cc(C(=O)NC3CCN(C)CC3)c(C)c3[nH]c4ncc(C)cc4c23)c1` [TAK-901], the “Curve Class” value is listed as -1.1, the Efficacy was -101.2 and the “Max Resp” value is on record as -96.3.
With `O=C1OC(/C=C/c2ccccc2)=NC/1=C\c1cccnc1` [TC-DAPK 6], the “Curve Class” value is recorded as -1.2, the Efficacy is reported as -71.2 and the “Max Resp” value is on record as -68.2.
As for `Oc1ccc(-c2ccc(-c3cc(Nc4cccc(CNC5CC5)c4)[nH]n3)cc2)c(O)c1` [TCS-2312], the “Curve Class” value was -1.1, the Efficacy is listed as -85.0 and the “Max Resp” value is recorded as -94.1.
For `CN1CCN(Cc2ccc(Nc3ncc(Cl)c(Nc4ccccc4S(=O)(=O)N(C)C)n3)cc2)CC1` [TP-0903], the “Curve Class” value is recorded as -1.2, the Efficacy is recorded as -74.0 and the “Max Resp” value is reported as -96.9. Also, the half-maximal activity concentration (AC50) (concentration at which half maximal activity is observed, 7-point qHTS, read-out: AC50) came out at 68.7 nM.
For `N#C/C(=C\c1ccc(O)c(O)c1)C(=O)NCCCNC(=O)/C(C#N)=C/c1ccc(O)c(O)c1` [Tyrphostin AG 537], the “Curve Class” value is listed as -1.1, the Efficacy is listed as -98.0 and the “Max Resp” value is on record as -83.8.
The corresponding values for `CN[C@@H]1C[C@H]2O[C@@](C)([C@@H]1OC)n1c3ccccc3c3c4c(c5c6ccccc6n2c5c31)C(=O)N[C@H]4O` [UCN-01] are -1.1, -83.5 and -93.0.
For the compound `CC[C@@](C)(Nc1ccnc(-c2c[nH]c3ncccc23)n1)C(=O)NCC(F)(F)F` [VX-509 (Decernotinib)], the “Curve Class” value was -1.1, the Efficacy is given as -91.7 and the “Max Resp” value was -97.1.
On the same counts, the results for `CN1CC[C@@H](c2c(O)cc(O)c3c(=O)cc(-c4ccc(C(F)(F)F)cc4Cl)oc23)[C@@H]1CO` [Voruciclib] are -1.1, -95.6 and -95.8.
Turning to `CC(C)c1cc(CNc2nc(Nc3cc(C4CC4)[nH]n3)cc(N3CCN(C)CC3)n2)on1` [XL-228], the “Curve Class” value is listed as -1.1, the Efficacy is recorded as -97.1 and the “Max Resp” value was -96.7.
The corresponding values for `O=C1NCCSc2c1sc1ccc(O)cc21` [kb-NB142-70] are -1.1, -82.7 and -91.1.
